Consider 29 compounds from patent US10072014B2 (Janssen Pharmaceutica NV, priority 2014, dated 2018).

One series deals with T1, human mGlu2 receptor (Homo sapiens, UniProt Q14416).
T1 construct: expressed in transfected cells; host or cells: CHO cells
The series is described as follows: [35S]GTPγS binding assay, negative allosteric modulation of mGluR2. It counts as biochemical. The note with it: for Emax: maximal % inhibition relative to the control glutamate response (EC80 glutamate), read-out: GTPγS-hmGluR2 anGT Emax; for IC50: membranes from CHO cells transfected with human mGlu2 receptor, glutamate 60 μM (~EC80), read-out: GTPγS-hmGluR2 anGT pIC50 (converted). From the text:
The compounds provided in the present invention are negative allosteric modulators of mGluR2. These compounds appear to inhibit glutamate responses by binding to an allosteric site other than the glutamate binding site. The response of mGluR2 to a concentration of glutamate is decreased when compounds of Formula (I) are present. Compounds of Formula (I) are expected to have their effect substantially at mGluR2 by virtue of their ability to reduce the function of the receptor. The effects of negative allosteric modulators tested at mGluR2 using the [^35S]GTPγS binding assay method described below and which is suitable for the identification of such compounds, and more particularly the compounds according to Formula (I), are shown in Table 7.
1) [^35S]GTPγS Binding Assay
The [^35S]GTPγS binding assay is a functional membrane-based assay used to study G-protein coupled receptor (GPCR) function whereby incorporation of a non-hydrolysable form of GTP, [^35S]GTPγS (guanosine 5′-triphosphate, labelled with […] ^35S), is measured. The G-protein a subunit catalyzes the exchange of guanosine 5′-diphosphate (GDP) by guanosine triphosphate (GTP) and on activation of the GPCR by an agonist, [^35S]GTPγS, becomes incorporated and cannot be cleaved to continue the exchange cycle (Harper (1998) Current Protocols in Pharmacology 2.6.1-10, John Wiley & Sons, Inc.). […] Here we describe the use of the [^35S]GTPγS binding assay using membranes from cells transfected with the human mGlu2 receptor and adapted from Schaffhauser et al. (Molecular Pharmacology, 2003, […]) for the detection of the negative allosteric modulation (NAM) properties of the compounds of this invention.
CHO-cells were cultured to pre-confluence and stimulated with 5 mM butyrate for 24 h. Cells were then collected by scraping in PBS and cell suspension was centrifuged (10 min at 4000 RPM in benchtop centrifuge). Supernatant was discarded and pellet gently resuspended in 50 mM Tris-HCl, pH 7.4 by mixing with an Ultra Turrax homogenizer. The suspension was centrifuged at 12,400 RPM (Sorvall F14S-6x250Y) for 10 minutes and the supernatant discarded. The pellet was homogenized in 5 mM Tris-HCl, pH 7.4 using an Ultra Turrax homogenizer and centrifuged again (13,000 RPM, 20 min, 4° C.). The final pellet was resuspended in 50 mM Tris-HCl, pH 7.4 and stored at −80° C. in appropriate aliquots before use. Protein concentration was determined by the Bradford method (Bio-Rad, USA) with bovine serum albumin as standard.
[^35S]GTPγS Binding Assay
Measurement of mGluR2 negative allosteric modulatory activity of test compounds was performed as follows. Test compounds and glutamate were diluted in assay buffer containing 10 mM HEPES acid, 10 mM HEPES salt, pH 7.4, 100 mM NaCl, 3 mM MgCl2 and 10 μM GDP. Human mGlu2 receptor-containing membranes were thawed on ice and diluted in assay buffer supplemented with 18 μg/ml saponin. Membranes were pre-incubated with compound together with a predefined (˜EC80) concentration of glutamate (60 μM) for 30 min at 30° C. After addition of [^35S]GTPγS (f.c. 0.1 nM), assay mixtures were shaken briefly and further incubated to allow [^35S]GTPγS incorporation on activation (30 minutes, 30° C.). Final assay mixtures contained 7 μg of membrane protein in 10 mM HEPES acid, 10 mM HEPES salt, pH 7.4, 100 mM NaCl, 3 mM MgCl2, 10 μM GDP and 10 μg/ml saponin. Total reaction volume was 200 μl. Reactions were terminated by rapid filtration through Unifilter-96 GF/B plates (Perkin Elmer, Massachusetts, USA) using a 96-well filtermate universal harvester. Filters were washed 6 times with ice-cold 10 mM NaH2PO4/10 mM Na2HPO4, pH 7.4. Filters were then air-dried, and 30 μl of liquid scintillation cocktail (Microscint-O) was added to each well. Membrane-bound radioactivity was counted in a Topcount.
The concentration-response curves of representative compounds of the present invention were generated using the Lexis software interface (developed at J&J). […]
(Binding of GTPγS marks nucleotide exchange on a G protein.)

T1 sequence (Q14416 19-872): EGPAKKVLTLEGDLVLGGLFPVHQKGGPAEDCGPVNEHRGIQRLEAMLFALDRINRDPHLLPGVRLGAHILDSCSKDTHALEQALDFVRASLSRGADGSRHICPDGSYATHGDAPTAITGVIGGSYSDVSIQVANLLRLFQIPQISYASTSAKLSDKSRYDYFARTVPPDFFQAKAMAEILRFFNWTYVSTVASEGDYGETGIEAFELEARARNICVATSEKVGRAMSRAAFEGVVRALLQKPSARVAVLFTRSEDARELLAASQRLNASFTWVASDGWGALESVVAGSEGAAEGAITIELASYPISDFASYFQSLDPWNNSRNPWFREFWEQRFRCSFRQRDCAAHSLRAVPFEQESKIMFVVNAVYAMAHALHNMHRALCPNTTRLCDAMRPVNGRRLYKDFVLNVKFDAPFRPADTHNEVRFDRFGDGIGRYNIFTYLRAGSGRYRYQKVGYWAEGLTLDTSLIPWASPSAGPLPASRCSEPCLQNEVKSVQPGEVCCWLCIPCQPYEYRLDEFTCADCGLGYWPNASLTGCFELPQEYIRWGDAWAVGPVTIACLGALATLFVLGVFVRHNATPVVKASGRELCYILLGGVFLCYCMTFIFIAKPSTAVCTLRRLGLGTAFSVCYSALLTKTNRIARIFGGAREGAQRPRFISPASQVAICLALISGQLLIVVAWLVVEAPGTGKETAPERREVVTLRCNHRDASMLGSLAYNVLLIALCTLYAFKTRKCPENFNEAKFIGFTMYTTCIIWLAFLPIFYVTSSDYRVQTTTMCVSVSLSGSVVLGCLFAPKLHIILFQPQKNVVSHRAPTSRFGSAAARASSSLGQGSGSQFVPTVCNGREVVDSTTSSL

`C[C@H]1CN(c2ccc(C(F)(F)F)cc2)C(=O)c2c(-c3nc[nH]c3Br)cnn21` [Compound 1] gave a melting point of 228.68 °C. Further, on human mGlu2 receptor, the maximum response (Emax) is 99.3% and the IC50 is 11.5 nM.

Take `C[C@H]1CN(c2ccc(C(F)(F)F)cc2)C(=O)c2c(-c3c[nH]c(C4CC4)n3)cnn21` [Compound 2]: at human mGlu2 receptor, the Emax was determined as 103% and the IC50 is 20 nM.

On to `C[C@H]1CN(c2ccc(C(F)(F)F)cc2)C(=O)c2c(-c3nc(-c4ccc(N)nc4)[nH]c3Cl)cnn21` [Compound 3], for which, on human mGlu2 receptor, the Emax was determined as 108% and the IC50 was 25.1 nM.

`C[C@H]1CN(c2ccc(C(F)(F)F)cc2)C(=O)c2c(-c3c[nH]c(-c4ccccc4)n3)cnn21` [Compound 5]: the melting point came to 119.88 °C. On human mGlu2 receptor, the Emax was determined as 105% and the IC50 was 27.5 nM.

In turn, `CC(C)c1nc(-c2cnn3c2C(=O)N(c2ccc(C(F)(F)F)cc2)C[C@@H]3C)c[nH]1` [Compound 6] gave a melting point of 156.03 °C. At human mGlu2 receptor, the Emax is 104% and the IC50 is 30.9 nM.

`C[C@H]1CN(c2ccc(C(F)(F)F)cc2)C(=O)c2c(-c3cnc(C(F)(F)F)[nH]3)cnn21` [Compound 8]: on human mGlu2 receptor, the Emax is 108% and the IC50 is 33.1 nM.

Take `C[C@H]1CN(c2ccc(C(F)(F)F)cc2)C(=O)c2c(-c3nc(-c4ccc(N)nc4)[nH]c3Br)cnn21` [Compound 9]: at human mGlu2 receptor, the Emax stood at 108% and the IC50 was 34.7 nM.

`C[C@H]1CN(c2ccc(C(F)(F)F)cc2)C(=O)c2c(-c3cnc(C#N)[nH]3)cnn21` [Compound 10] registered a melting point of 219.19 °C. On human mGlu2 receptor, the Emax amounted to 107% and the IC50 was 36.3 nM.

`C[C@H]1CN(c2ccc(C(F)(F)F)cc2)C(=O)c2c(-c3cnc[nH]3)cnn21` [Compound 12]: the melting point is 176.92 °C. Also, at human mGlu2 receptor, the Emax was 101% and the IC50 is 70.8 nM.

Consider `COCc1ncc(-c2cnn3c2C(=O)N(c2ccc(C(F)(F)F)cc2)C[C@@H]3C)[nH]1` [Compound 13], for which, on human mGlu2 receptor, the Emax was found to be 104% and the IC50 was 83.2 nM.

`Cc1[nH]c(-c2cccnc2)nc1-c1cnn2c1C(=O)N(c1ccc(C(F)(F)F)cc1)C[C@@H]2C` [Compound 14] showed a melting point of 244.74 °C. Moreover, on human mGlu2 receptor, the Emax was 103% and the IC50 is 110 nM.

As for `CNc1ncc(-c2cnn3c2C(=O)N(c2ccc(C(F)(F)F)cc2)C[C@@H]3C)[nH]1` [Compound 15], the melting point came out at 205 °C. Besides, at human mGlu2 receptor, the Emax turned out to be 102% and the IC50 was 170 nM.

With `Cc1[nH]c(-c2ccccn2)nc1-c1cnn2c1C(=O)N(c1ccc(C(F)(F)F)cc1)C[C@@H]2C` [Compound 17], the melting point was 198.73 °C. Moreover, on human mGlu2 receptor, the Emax is 106% and the IC50 was 145 nM.

For `C[C@H]1CN(c2ccc(Cl)c(Cl)c2)C(=O)c2c(-c3c[nH]c(-c4ccc(N)nc4)n3)cnn21` [Compound 19], at human mGlu2 receptor, the Emax stood at 108% and the IC50 was 50.1 nM.

Consider `Cc1cc(N2C[C@H](C)n3ncc(-c4c[nH]c(-c5ccc(N)nc5)n4)c3C2=O)ccc1C(F)(F)F` [Compound 20], for which the melting point stood at 275.27 °C. Besides, on human mGlu2 receptor, the Emax was 107% and the IC50 was 53.7 nM.

For `Cc1nc(-c2cnn3c2C(=O)N(c2ccc(C(F)(F)F)c(C#N)c2)C[C@@H]3C)c[nH]1` [Compound 23], the melting point came out at 226.81 °C. In addition, on human mGlu2 receptor, the Emax was determined as 104% and the IC50 is 64.6 nM.

Compound `Cc1ncc(-c2cnn3c2C(=O)N(c2ccc(C(F)(F)F)c(CF)c2)C[C@@H]3C)[nH]1` [Compound 24] had a melting point of 174.28 °C. Besides, on human mGlu2 receptor, the maximum response (Emax) came to 106% and the IC50 is 15.8 nM.

Consider `C[C@H]1CN(c2ccc(C(F)(F)F)c(Cl)c2)C(=O)c2c(-c3c[nH]c(C#N)n3)cnn21` [Compound 29], for which, at human mGlu2 receptor, the Emax stood at 111% and the IC50 was 3.89 nM.

Take `CNC(=O)c1nc(-c2cnn3c2C(=O)N(c2ccc(C(F)(F)F)c(Cl)c2)C[C@@H]3C)c[nH]1` [Compound 35]: on human mGlu2 receptor, the Emax is 111% and the IC50 is 38 nM.

Regarding `C[C@H]1CN(c2ccc(C(F)(F)F)c(Cl)c2)C(=O)c2c(-c3c[nH]c(C(=O)N(C)C)n3)cnn21` [Compound 36], on human mGlu2 receptor, the Emax stood at 106% and the IC50 is 110 nM.

Compound `C[C@H]1CN(c2ccc(C(F)(F)F)c(Cl)c2)C(=O)c2c(-c3c[nH]c(-c4cccnc4)n3)cnn21` [Compound 37] showed a melting point of 188.06 °C. Further, on human mGlu2 receptor, the Emax was determined as 109% and the IC50 is 12.9 nM.

`Cc1[nH]c(-c2ccccn2)nc1-c1cnn2c1C(=O)N(c1ccc(C(F)(F)F)c(Cl)c1)C[C@@H]2C` [Compound 38] showed a melting point of 232.11 °C. At human mGlu2 receptor, the Emax turned out to be 105% and the IC50 is 21.4 nM.

Turning to `C[C@H]1CN(c2ccc(C(F)(F)F)c(Cl)c2)C(=O)c2c(-c3c[nH]c(-c4ccccn4)n3)cnn21` [Compound 39], on human mGlu2 receptor, the Emax was 104% and the IC50 was 8.32 nM.

In the case of `C[C@H]1CN(c2ccc(C(F)(F)F)cc2)C(=O)c2c(-c3cnc(C4CCC4)[nH]3)cnn21` [Compound 40], at human mGlu2 receptor, the Emax amounted to 107% and the IC50 is 6.92 nM.

With `Cc1cc(-c2ncc(-c3cnn4c3C(=O)N(c3ccc(C(F)(F)F)cc3)C[C@@H]4C)[nH]2)ccn1` [Compound 41], on human mGlu2 receptor, the Emax amounted to 106% and the IC50 was 166 nM.

Consider `C[C@H]1CN(c2ccc(C(F)(F)F)c(Cl)c2)C(=O)c2c(-c3c[nH]c(C4CCC4)n3)cnn21` [Compound 42], for which the melting point is 173.18 °C. On human mGlu2 receptor, the Emax is 109% and the IC50 was 1.86 nM.

As for `C[C@H]1CN(c2ccc(C(F)(F)F)c(Cl)c2)C(=O)c2c(-c3c[nH]c(-c4cnccn4)n3)cnn21` [Compound 43], the melting point was 227.75 °C. For the same compound, on human mGlu2 receptor, the Emax is 106% and the IC50 was 4.9 nM.

Take `C[C@H]1CN(c2ccc(C(F)(F)F)cc2)C(=O)c2c(-c3c[nH]c(-c4cnccn4)n3)cnn21` [Compound 44]: on human mGlu2 receptor, the Emax was 103% and the IC50 was 38.9 nM.

As for `C[C@H]1CN(c2ccc(C(F)(F)F)c(Cl)c2)C(=O)c2c(-c3nc(-c4ccc(N)nc4)[nH]c3C#N)cnn21` [Compound 45], at human mGlu2 receptor, the Emax came out at 106% and the IC50 was 34.7 nM.

The term melting point denotes the temperature of the solid-liquid transition. A word on the Emax: it is the size of the effect at its maximum, as opposed to the concentration needed.
